The species named for test [1] is Rattus norvegicus. The test can be described thus: Bioconversion to albendazole in rats at 10 hr; detectable. Type of test: functional, organism-based.
The species entered for test [2] is Rattus norvegicus. The test can be described thus: Bioconversion to albendazole in rats at 12 hr. Type of test: functional.
For test [3], the species on record is Rattus norvegicus. Kind of test: Bioconversion to albendazole in rats at 12 hr; detectable. It is filed as functional, organism-based.
The species entered for test [4] is Rattus norvegicus. The test can be described thus: Bioconversion to albendazole in rats at 2 hr. Type of test: functional.
The species entered for test [5] is Rattus norvegicus. The test can be described thus: Bioconversion to albendazole in rats at 4 hr; detectable. It is filed as functional, organism-based.
The species named for test [6] is Rattus norvegicus. The test can be described thus: Bioconversion to albendazole in rats at 6 hr; detectable. Type of test: functional, organism-based.
For test [7], the species on record is Rattus norvegicus. The test can be described thus: Bioconversion to albendazole in rats at 8 hr; detectable. Type of test: functional, organism-based.
For test [8], the species on record is Rattus norvegicus. Kind of test: Bioconversion to albendazole sulfonic in rats at 10 hr. It is filed as functional.
Test [9] is filed under the species Rattus norvegicus. The test can be described thus: Bioconversion to albendazole sulfonic in rats at 4 hr. Type of test: functional.
For test [10], the species on record is Rattus norvegicus. The test can be described thus: Bioconversion to albendazole sulfonic in rats at 6 hr. Type of test: functional.
For test [11], the species on record is Rattus norvegicus. Kind of test: Bioconversion to albendazole sulfonic in rats at 8 hr. Type of test: functional.
For test [12], the species on record is Rattus norvegicus. The test can be described thus: Bioconversion to albendazole in rats at 2 hr; detectable. Type of test: functional, organism-based.
Test [13] is filed under the species Rattus norvegicus. The test can be described thus: Bioconversion to albendazole sulfonic in rats at 2 hr. Type of test: functional.
Test [14] is filed under the species Rattus norvegicus. The test can be described thus: Bioconversion to albendazole in rats at 4 hr; not detectable. It is filed as functional, organism-based.
Test [15] is filed under the species Rattus norvegicus. The test can be described thus: Bioconversion to albendazole in rats at 6 hr; not detectable. Type of test: functional, organism-based.
The species entered for test [16] is Rattus norvegicus. The test can be described thus: Bioconversion to albendazole sulfonic in rats at 10 hr; not detectable. It is filed as functional, organism-based.
For test [17], the species on record is Rattus norvegicus. The test can be described thus: Bioconversion to albendazole sulfonic in rats at 12 hr. It is filed as functional.
Test [18] is filed under the species Rattus norvegicus. The test can be described thus: Bioconversion to albendazole sulfonic in rats at 6 hr; not detectable. Type of test: functional, organism-based.
Test [19] is filed under the species Rattus norvegicus. The test can be described thus: Bioconversion to albendazole sulfonic in rats at 8 hr; not detectable. Type of test: functional, organism-based.
The species entered for test [20] is Rattus norvegicus. Kind of test: Bioconversion to albendazole in rats at 12 hr; not detectable. It is filed as functional, organism-based.
Test [21] is filed under the species Rattus norvegicus. Kind of test: Bioconversion to albendazole in rats at 2 hr; not detectable. It is filed as functional, organism-based.
The species entered for test [22] is Rattus norvegicus. Kind of test: Bioconversion to albendazole in rats at 8 hr. Type of test: functional.
For test [23], the species on record is Rattus norvegicus. Kind of test: Bioconversion to albendazole in rats at 8 hr; not detectable. Type of test: functional, organism-based.
For test [24], the species on record is Rattus norvegicus. Kind of test: Bioconversion to albendazole sulfonic in rats at 12 hr; not detectable. It is filed as functional, organism-based.
The species named for test [25] is Rattus norvegicus. Kind of test: Bioconversion to albendazole sulfonic in rats at 2 hr; not detectable. It is filed as functional, organism-based.
The species entered for test [26] is Rattus norvegicus. Kind of test: Bioconversion to albendazole sulfonic in rats at 4 hr; not detectable. Type of test: functional, organism-based.
Test [27] is filed under the species Rattus norvegicus. Kind of test: Bioconversion to albendazole sulfonic in rats at 8 hr; detectable. Type of test: functional, organism-based.

Where “and” joins values, the source holds several entries; their conditions need not be identical. Equal values may be shown once.

On to `CCCSc1ccc2[nH]c(NC(=O)OC)nc2c1` [ALBENDAZOLE], for which the Activity entry in test [1] was “Detectable”; in [2], 0.098 µg/mL; in [3], “Detectable”; in test [4], 0.055 µg/mL; in test [5] it was “Detectable”; in test [6] it was “Detectable”. Besides, the Activity result was “Detectable” in [7]; 0.2696 µg/mL and 0.1297 µg/mL in test [8]; 0.3084 µg/mL and 0.1935 µg/mL in test [9]; 0.2875 µg/mL and 0.4081 µg/mL in test [10]; 0.28 µg/mL and 0.1113 µg/mL in test [11]; “Detectable” in [12]. Moreover, the Activity in test [13] is 0.593 µg/mL and 0.245 µg/mL.

Turning to `CCCSc1ccc(NC(=S)NC(=O)OC)c([N+](=O)[O-])c1`, the Activity entry in test [1] is “Detectable”; in test [3], “Detectable”; in test [14], “Not detectable”; in [6], “Detectable”; in [15], “Not detectable”; in test [7], “Detectable”. Besides, the Activity entry in [16] was “Not detectable”; in test [17], 0.2704 µg/mL; in [9] it was 0.0927 µg/mL and 0.0958 µg/mL; in test [10] it was 0.1633 µg/mL; in [18], “Not detectable”; in test [19], “Not detectable”. The Activity result in [12] was “Detectable”; in [13], 0.1802 µg/mL and 0.1088 µg/mL.

As to `CCCSc1ccc([N+](=O)[O-])c(NC(=S)NC(=O)OC)c1`, the Activity result in test [1] was “Detectable”; in test [20], “Not detectable”; in [21], “Not detectable”; in test [14], “Not detectable”; in [22] it was 0.0792 µg/mL; in [23], “Not detectable”. Besides, the Activity in test [8] was 0.0889 µg/mL; in test [16], “Not detectable”; in test [17] it was 0.1622 µg/mL; in [24], “Not detectable”; in [25], “Not detectable”; in [9] it was 0.096 µg/mL. The Activity entry was “Not detectable” in test [26], “Not detectable” in test [18], “Detectable” in [27] and “Not detectable” in test [19].

These data come from ChEMBL document CHEMBL1129169, “Preparation of N-methoxycarbonyl-N-[2-nitro-4(5)-propylthiophenyl]thiourea as prodrugs of albendazole” (1996).
